Data reported in US11905306B2 (priority 2021, dated 2024).

What was measured:
[1] = tested on: USA_WA1/2020 SARS CoV-2; test: microbe, parasite or virus in culture; type: cell-based; conditions: Severe acute respiratory syndrome coronavirus 2, Vero C1008, 72 h, read-out: SARS-2 EC50 (μM) VeroE6
[2] = in vitro; conditions: African green monkey
[3] = tested on: Toronto 2 SARS CoV-1; test: organism not typed; type: cell-based; conditions: Vero C1008, 72 h, read-out: SARS-1 EC50 (μM) VeroE6

Row | SMILES | EC50 [1] [µM] | CC50 [2] [µM] | EC50 [3] [µM]
1 | O=C1Nc2ccc(C(=O)Nc3cccc(C#Cc4ccccn4)c3)cc2CO1 [Compound 3, Oxo-N-(3-(pyridin-2-ylethynyl)phenyl)-1,4-dihydro-2H-benzo[d][1,3]oxazine-6-carboxamide] | 11.6 | 15.8 | > 30
2 | CCC(=O)Nc1ccc(C(=O)Nc2cccc(C#Cc3ccccn3)c2)cc1 [Compound 6, 4-Propionamido-N-(3-(pyridin-2-ylethynyl)phenyl)benzamide] | 1.01 | > 30 | 0.92
3 | CCCC(=O)Nc1ccc(C(=O)Nc2cccc(C#Cc3ccccn3)c2)cc1 [Compound 7, 4-Butyramido-N-(3-(pyridin-2-ylethynyl)phenyl)benzamide] | 0.26 | > 30 | 0.16
4 | O=C(Nc1cccc(C#Cc2ccccn2)c1)c1ccc(NC(=O)C(F)(F)F)cc1 [Compound 10, N-(3-(Pyridin-2-ylethynyl)phenyl)-4-(2,2,2-trifluoroacetamido)benzamide] | 6.52 | > 30 | 4.89
5 | CCOC(=O)Nc1ccc(C(=O)Nc2cccc(C#Cc3ccccn3)c2)cc1 [Compound 11, Ethyl (4-((3-(pyridin-2-ylethynyl)phenyl)carbamoyl)phenyl)carbamate] | 1.07 | > 30 | 0.84
6 | NC(=O)Nc1ccc(C(=O)Nc2cccc(C#Cc3ccccn3)c2)cc1 [Compound 12, N-(3-(pyridin-2-ylethynyl)phenyl)-4-ureidobenzamide] | > 30 | > 30 | > 30
7 | O=C(Nc1cccc(C#Cc2ccccn2)c1)c1ccc(NC(=O)N2CCOCC2)cc1 [Compound 13, N-(4-((3-(Pyridin-2-ylethynyl)phenyl)carbamoyl)phenyl)morpholine-4-carboxamide] | 8.25 | > 40 | 7.94
8 | O=C(Nc1cccc(C#Cc2ccccn2)c1)c1ccc(N2CCCNC2=O)cc1 [Compound 15, 4-(2-Oxotetrahydropyrimidin-1(2H)-yl)-N-(3-(pyridin-2-ylethynyl)phenyl)benzamide] | 7.81 | > 30 | 9.71
9 | CN1CCN(c2ccc(C(=O)Nc3cccc(C#Cc4ccccn4)c3)cc2)C1=O [Compound 16, 4-(3-Methyl-2-oxoimidazolidin-1-yl)-N-(3-(pyridin-2-ylethynyl)phenyl)benzamide] | 1.28 | > 30 | 0.75
10 | O=C(Nc1cccc(C#Cc2ccccn2)c1)c1ccc(N2CCCOC2=O)cc1 [Compound 18, 4-(2-Oxo-1,3-oxazinan-3-yl)-N-(3-(pyridin-2-ylethynyl)phenyl)benzamide] | > 30 | > 30 | > 30
11 | CC(=O)N(C)c1ccc(C(=O)Nc2cccc(C#Cc3ccccn3)c2)cc1 [Compound 19, 4-(N-methylacetamido)-N-(3-(pyridin-2-ylethynyl)phenyl)benzamide] | 3.92 | > 30 | 2.19
12 | O=C(Nc1cccc(C#Cc2ccccn2)c1)c1ccc(N2CCC2=O)cc1 [Compound 20, 4-(2-oxoazetidin-1-yl)-N-(3-(pyridin-2-ylethynyl)phenyl)benzamide] | 11.7 | > 30 | 2.12
13 | CC1(C)CN(c2ccc(C(=O)Nc3cccc(C#Cc4ccccn4)c3)cc2)C1=O [Compound 21, 4-(3,3-Dimethyl-2-oxoazetidin-1-yl)-N-(3-(pyridin-2-ylethynyl)phenyl)benzamide] | 0.32 | > 30 | 0.52
14 | O=C(Nc1cccc(C#Cc2ccccn2)c1)c1ccc(N2CCCCCC2=O)cc1 [Compound 25, 4-(2-Oxoazepan-1-yl)-N-(3-(pyridin-2-ylethynyl)phenyl)benzamide] | 1.09 | > 30 | 0.52
15 | COc1ccc(C(=O)Nc2ccc(C(=O)Nc3cccc(C#Cc4ccccn4)c3)cc2)cc1 [Compound 27, 4-Methoxy-N-(4-((3-(pyridin-2-ylethynyl)phenyl)carbamoyl)phenyl)benzamide] | > 30 | > 30 | > 30
16 | O=C(Nc1ccc(C(=O)Nc2cccc(C#Cc3ccccn3)c2)cc1)c1ccc(O)cc1 [Compound 28, 4-Hydroxy-N-(4-((3-(pyridin-2-ylethynyl)phenyl)carbamoyl)phenyl)benzamide] | > 30 | > 30 | 17.1
17 | CC(=O)Nc1ccc(C(=O)Nc2cccc(C#Cc3ccccn3)c2)cc1O [Compound 30, 4-Acetamido-3-hydroxy-N-(3-(pyridin-2-ylethynyl)phenyl)benzamide] | 4.37 | > 30 | 6.18
18 | CC(=O)Nc1ccc(C(=O)Nc2cccc(C#Cc3ccccn3)c2)nn1 [Compound 31, 6-Acetamido-N-(3-(pyridin-2-ylethynyl)phenyl)pyridazine-3-carboxamide] | > 30 | > 30 | > 30

Row | SMILES | EC50 [1] [µM] | CC50 [2] [µM] | EC50 [3] [µM]
19 | O=C(Nc1cccc(C#Cc2ccccn2)c1)c1ccc(N2CCN(C3CCC3)CC2=O)cc1 [Compound 32, 4-(4-Cyclobutyl-2-oxopiperazin-1-yl)-N-(3-(pyridin-2-ylethynyl)phenyl)benzamide] | 5.02 | 23.1 | 6.08
20 | O=C(Nc1cccc(C#Cc2ccccn2)c1)c1ccc(N2CCN(CC3CCC3)CC2=O)cc1 [Compound 33, 4-(4-(Cyclobutylmethyl)-2-oxopiperazin-1-yl)-N-(3-(pyridin-2-ylethynyl)phenyl)benzamide] | > 30 | > 30 | 4.62
21 | Cc1nc2ccc(C(=O)Nc3cccc(C#Cc4ccccn4)c3)cc2o1 [Compound 34, 2-Methyl-N-(3-(pyridin-2-ylethynyl)phenyl)benzo[d]oxazole-6-carboxamide] | 2.11 | 26.1 | 2.01
22 | O=C(Nc1cccc(C#Cc2ccccn2)c1)c1ccc(N2CC3(CCC3)C2=O)cc1 [Compound 35, 4-(1-Oxo-2-azaspiro[3.3]heptan-2-yl)-N-(3-(pyridin-2-ylethynyl)phenyl)benzamide] | 1.64 | > 30 | 0.43
23 | O=C(Nc1cccc(C#Cc2ccccn2)c1)c1ccc(N2CCCC3(CCC3)C2=O)cc1 [Compound 36, 4-(5-Oxo-6-Azaspiro[3.5]nonan-6-yl)-N-(3-(pyridin-2-ylethynyl)phenyl)benzamide] | 0.49 | 15.3 | 0.35
24 | O=C(Nc1cccc(C#Cc2ccccn2)c1)c1ccc(C(=O)NC2CC2)cc1 [Compound 37, N^1-cyclopropyl-N^4-(3-(pyridin-2-ylethynyl)phenyl)terephthalamide] | 4 | > 30 | 2.12
25 | O=C(Nc1cccc(C#Cc2ccccn2)c1)c1ccc(C(=O)NC2CCC2)cc1 [Compound 38, N^1-cyclobutyl-N^4-(3-(pyridin-2-ylethynyl)phenyl)terephthalamide] | 1.64 | > 30 | 0.75
26 | O=C(Nc1cccc(C#Cc2ccccn2)c1)c1ccc(C(=O)NC2CCCC2)cc1 [Compound 39, N^1-cyclopentyl-N^4-(3-(pyridin-2-ylethynyl)phenyl)terephthalamide] | 1 | > 40 | 0.53
27 | O=C(Nc1cccc(C#Cc2ccccn2)c1)c1ccc(-c2nnco2)cc1 [Compound 41, 4-(1,3,4-Oxadiazol-2-yl)-N-(3-(pyridin-2-ylethynyl)phenyl)benzamide] | 1.54 | > 30 | 0.93
28 | CN(C)c1ccc(C(=O)Nc2cccc(C#Cc3ccccn3)c2)cc1 [Compound 42, 4-(Dimethylamino)-N-(3-(pyridin-2-ylethynyl)phenyl)benzamide] | 6.52 | > 30 | 1.57
29 | N#CC1(c2ccc(C(=O)Nc3cccc(C#Cc4ccccn4)c3)cc2)CC1 [Compound 45, 4-(1-Cyanocyclopropyl)-N-(3-(pyridin-2-ylethynyl)phenyl)benzamide] | 3.72 | 20.8 | 3.12
30 | Cc1cc(C#Cc2ccccn2)nc(NC(=O)c2ccc3c(c2)CCC(=O)N3)c1 [Compound 47, N-(4-Methyl-6-(pyridin-2-ylethynyl)pyridin-2-yl)-2-oxo-1,2,3,4-tetrahydroquinoline-6-carboxamide] | 6.29 | > 30 | 5.51
31 | CC(=O)Nc1ccc(-c2nc3ccc(C#Cc4ccccn4)cc3[nH]2)cc1 [Compound 49, N-(4-(5-(Pyridin-2-ylethynyl)-1H-benzo[d]imidazol-2-yl)phenyl)acetamide] | > 30 | > 30 | > 30
32 | COc1cc(C#Cc2ccccn2)cc(NC(=O)c2ccc3c(c2)CCCC(=O)N3)c1 [Compound 51, N-(3-Methoxy-5-(pyridin-2-ylethynyl)phenyl)-2-oxo-2,3,4,5-tetrahydro-1H-benzo[b]azepine-7-carboxamide] | 0.52 | 12.2 | 0.51
33 | Nc1cc(C#Cc2ccccn2)cc(NC(=O)c2ccc(N3CCCCC3=O)cc2)c1 [Compound 52, N-(3-Amino-5-(pyridin-2-ylethynyl)phenyl)-4-(2-oxopiperidin-1-yl)benzamide] | 26 | > 30 | 26
34 | O=C(Nc1cc(C#Cc2ccccn2)cc(OCC2CC2)c1)c1ccc(N2CCCCC2=O)cc1 [Compound 53, N-(3-(Cyclopropylmethoxy)-5-(pyridin-2-ylethynyl)phenyl)-4-(2-oxopiperidin-1-yl)benzamide] | 0.18 | > 30 | 0.062
35 | CC(=O)Nc1ccc(NC(=O)c2cccc(C#Cc3ccccn3)c2)cc1 [Compound 55, N-(4-acetamidophenyl)-3-(pyridin-2-ylethynyl)benzamide] | 4.18 | > 30 | 2.82
36 | CCN(C(C)=O)c1ccc(NC(=O)c2cccc(C#Cc3ccccn3)c2)cc1 [Compound 56, N-(4-(N-ethylacetamido)phenyl)-3-(pyridin-2-ylethynyl)benzamide] | 1.58 | > 30 | 1.11
